test system: GST-p53 DNA binding domain (aa 92-aa 312); assay: Scintillation Proximity Assay (displacement of 3H-labeled p53 binder); details: percentage of 3H-labeled ligand remaining bound, number in brackets = average of n
Method: [drawing 38] (^3H at C bearing the chlorophenyl groups and the piperazinyl group), a radiolabeled small molecule which binds to p53, and the GST-p53 DNA binding domain (aa 92-aa 312), a quantitative screening assay was used to determine if various molecules comprise p53 binding activity. The assay is based on Scintillation Proximity Assay (SPA) technology. The complex of GST-p53,
[drawing 39] and Glutathione-SPA beads (Amersham Biosciences) were incubated with mixing for 1 hour at room temperature in the presence of the compounds to be screened. The signal was read on a Microbeta.
The numerical values expressed refer to the percentage of labeled
[drawing 40] remaining bound to the mutant p53 protein after exposure to the indicated compound.

Compound | SPA ASSAY % Residual T @ 2 ug/mL of drug (Average of)
O=C(C1CCCO1)N1CCN(c2nc(CN3CCN(C(c4ccc(Cl)cc4)c4ccc(Cl)cc4)CC3)nc3ccccc23)CC1 (stereo not drawn) [Formula 48] | 66.0%
CN(C)CCCNc1nc(CN(C)Cc2cccc3c2OCO3)nc2ccccc12 [Formula 81] | 46.8%
CN(C)CCCNc1nc(CN(C)C2C[C@@H]3CC[C@H]2C3)nc2ccccc12 (stereo partly drawn) [Formula 98] | 64.4%
CN(C)CCCNc1nc(CN(C)Cc2c(F)cccc2F)nc2ccccc12 [Formula 75] | 58.9%
CN(C)CCCNc1nc(CN(C)C2CCCCC2)nc2ccccc12 [Formula 96] | 45.5 (3) %
O=c1[nH]c2ccccc2n1C1CCN(c2nc(CN3CCN(C(c4ccc(Cl)cc4)c4ccc(Cl)cc4)CC3)nc3ccccc23)CC1 [Formula 18] | 47.9%
CN(C)CCCNc1nc(CN(C)C2CCSC2)nc2ccccc12 (stereo not drawn) [Formula 97] | 45.0 (3) %
CCOC(=O)C1CC1CN(C)Cc1nc(NCCCN(C)C)c2ccccc2n1 (stereo not drawn) [Formula 76] | 57.8%
CN(C)CCCNc1nc(CN(C)Cc2ccccc2C#N)nc2ccccc12 [Formula 68] | 52.7%
CN(C)CCCNc1nc(CN(C)Cc2cc(Cl)ccc2Cl)nc2ccccc12 [Formula 87] | 49.5 (3) %
NC(=O)C1CCN(c2nc(CN3CCN(C(c4ccc(Cl)cc4)c4ccc(Cl)cc4)CC3)nc3ccccc23)CC1 [Formula 52] | 79.9%
CC(C)C1CCC(N(C)Cc2nc(NCCCN(C)C)c3ccccc3n2)CC1 (stereo not drawn) [Formula 100] | 13.5 (3) %
COC(=O)[C@@H](Nc1nc(CNC(=O)Nc2cc(Cl)cc(Cl)c2)nc2ccccc12)C(C)C [Formula 56] | 52.3%
CN(C)CCCNc1nc(CN(C)C2CCC(C(C)(C)C)CC2)nc2ccccc12 (stereo not drawn) [Formula 103] | 7.8 (2) %
CN(C)CCCNc1nc(CN(C)Cc2cccn2S(=O)(=O)c2ccccc2)nc2ccccc12 [Formula 93] | 45.1 (3) %
CC1CCC(N(C)Cc2nc(NCCCN(C)C)c3ccccc3n2)CC1 (stereo not drawn) [Formula 99] | 56.5%
CN(C)CCCNc1nc(CN(C)Cc2cccc(Cl)c2Cl)nc2ccccc12 [Formula 86] | 61.1%
CN(C)CCCNc1nc(CN(C)Cc2cccc(C#N)c2)nc2ccccc12 [Formula 69] | 50.9%
CCC(C)(C)C1CCC(N(C)Cc2nc(NCCCN(C)C)c3ccccc3n2)CC1 (stereo not drawn) [Formula 107] | 6.3 (2) %
CN(C)CCCNc1nc(CN(C)Cc2ccccc2C(=O)O)nc2ccccc12 [Formula 80] | 65.6%
CN(C)CCCNc1nc(CN(C)C2CCC2)nc2ccccc12 [Formula 95] | 66.5%
CN(C)CCCNc1nc(CN(C)Cc2ccco2)nc2ccccc12 [Formula 63] | 52.7%
CC(C)[C@H](Nc1nc(CNC(=O)N[C@H](C)c2ccccc2)nc2ccccc12)C(N)=O [Formula 59] | 56.8%
CCC(C)(C)C1CCC(N2CCN(Cc3nc(NCCCN(C)C)c4ccccc4n3)CC2)CC1 (stereo not drawn) [Formula 15] | 38.1%
CC(=O)N1CCC(N(C)Cc2nc(NCCCN(C)C)c3ccccc3n2)CC1 [Formula 101] | 47.7 (3) %
CN(C)CCCNc1nc(CN(C)Cc2cccs2)nc2ccccc12 [Formula 65] | 65.5%
CN(C)CCCNc1nc(CN(C)Cc2cc3ccccc3o2)nc2ccccc12 [Formula 78] | 45.9 (3) %

Next, values leading:

SPA ASSAY % Residual T @ 2 ug/mL of drug (Average of) | Compound
63.1% | Clc1ccc(C(c2ccc(Cl)cc2)N2CCN(Cc3nc(N4CCOCC4)c4ccccc4n3)CC2)cc1 [Formula 41]
38.0% | COc1ccc(NC(=O)N2CCN(Cc3nc(NCCCN(C)C)c4ccccc4n3)CC2)cc1 [Formula 16]
27.9% | CN(C)CCCNc1nc(CN2CCN(C(c3ccccc3)c3ccc(OC(F)(F)F)cc3)CC2)nc2ccccc12 (stereo not drawn) [Formula 9]
58.5% | CN(C)CCCC[C@H](Nc1nc(CN2CCN(C(c3ccc(Cl)cc3)c3ccc(Cl)cc3)CC2)nc2ccccc12)C(N)=O [Formula 119]
46.1% | CN(C)CCCNc1nc(CN2CCN(C(c3ccccc3)c3ccc(OC(F)(F)F)cc3)CC2)nc2ccccc12 (stereo not drawn) [Formula 10]
61.1% | CN(C)CCCNc1nc(CN(C)Cc2ccc(C#Cc3ccccc3)cc2)nc2ccccc12 [Formula 92]
21.0 (2) % | CN(C)CCCNc1nc(CN(C)C2CCC(c3ccccc3)CC2)nc2ccccc12 (stereo not drawn) [Formula 108]
53.0% | Cc1cc(C)c(NC(=O)N2CCN(Cc3nc(NCCCN(C)C)c4ccccc4n3)CC2)c(C)c1 [Formula 39]
61.6% | CN(CCc1ccccn1)c1nc(CN2CCN(C(c3ccc(Cl)cc3)c3ccc(Cl)cc3)CC2)nc2ccccc12 [Formula 45]
47.7% | CCOC(=O)[C@H](CCN(C)C)Nc1nc(CN2CCN(C(c3ccc(Cl)cc3)c3ccc(Cl)cc3)CC2)nc2ccccc12 [Formula 116]
58.6% | CN(C)CCC[C@H](Nc1nc(CN2CCN(C(c3ccc(Cl)cc3)c3ccc(Cl)cc3)CC2)nc2ccccc12)C(N)=O [Formula 118]
67.6% | CC(CCN(C)Cc1nc(NCCCN(C)C)c2ccccc2n1)c1ccccc1 (stereo not drawn) [Formula 79]
29.9% | CN(C)CCCNc1nc(CN2CCN(C(=O)Nc3ccc(Cl)c(Cl)c3)CC2)nc2ccccc12 [Formula 17]
62.7% | COC(=O)C1CCN(c2nc(CN3CCN(C(c4ccc(Cl)cc4)c4ccc(Cl)cc4)CC3)nc3ccccc23)CC1 [Formula 53]
80.7% | CN(Cc1ccccc1)c1nc(CN2CCN(C(c3ccc(Cl)cc3)c3ccc(Cl)cc3)CC2)nc2ccccc12 [Formula 43]
61.6% | OC1CCN(c2nc(CN3CCN(C(c4ccc(Cl)cc4)c4ccc(Cl)cc4)CC3)nc3ccccc23)CC1 [Formula 51]
45.9 (3) % | CN(C)CCCNc1nc(CN(C)Cc2ccc3ccccc3c2)nc2ccccc12 [Formula 83]
87.5% | Clc1ccc(C(c2ccc(Cl)cc2)N2CCN(Cc3nc(N4CCN(c5ccccc5)CC4)c4ccccc4n3)CC2)cc1 [Formula 46]
45.6% | COC(=O)[C@@H](Nc1nc(CN2CCN(C(=O)NC(c3ccccc3)c3ccccc3)CC2)nc2ccccc12)C(C)C [Formula 12]
77.0% | CN(C)CCCOc1nc(CN2CCN(C(c3ccc(Cl)cc3)c3ccc(Cl)cc3)CC2)nc2ccccc12 [Formula 37]
37.9% | CN(C)CCCNc1nc(CN2CCN(Cc3cccc4cc[nH]c34)CC2)nc2ccccc12 [Formula 13]
